US20240166596A1, “SULFAMOYL BENZENE DERIVATIVES AND USES THEREOF” (AphioTx Inc., priority 2021, published 2024)
“Also recorded” adds a separate entry of the source.

Tested on: Long Evans rats
Experiment: Morphine self-administration, extinction and cue-induced reinstatement (opioid seeking)
Format: in vivo
Procedure: Adult (8 to 10 weeks old at the beginning of the experiments) wild-type male and female Long Evans rats (250-350g) were used. Animals were group housed prior to jugular vein catheter implant surgery with two to three animals per cage on a 12/12 hours dark/light cycle (lights on at 7:00 AM). Rats were acclimated to the animal facility holding rooms for at least 7 days before any manipulation. After catheter implantation, animals were single housed to prevent damage to the harnesses. All experiments were performed during the light cycle. Rats received food and water ad libitum until 2 days prior to starting the behavioral studies, when food restriction (16 g of rat chow per day) started and continued until the end of the experiments.
All surgeries were performed under isoflurane (2.5/3 MAC) anesthesia using sterile aseptic techniques. For intravenous (IV) self-administration (SA), animals were implanted with sterile catheters in the right jugular vein and connected to a harness placed over the torso. The harness allowed for minimal stress while connecting and disconnecting the animal from infusion lines. The catheter was kept patent by daily infusions of gentamicin mixture (1.33 mg/ml).
Equipment: Rat self-administration was conducted using operant-conditioning chambers (Med Associates) equipped with two retractable levers with a food magazine connected to a food pellet dispenser between them. Two cue lights were positioned above the levers, and one house light was positioned on the top left-hand wall. During self-administration sessions both levers (correct and incorrect lever) were extended out with white cue light turned on only above the correct lever. […]
All experiments were performed at least twice, including each treatment condition to prevent an unspecific day/condition effect. […] All data are expressed as mean±SEM. […] After assessing the normality of sample data using Shapiro-Wilk test, statistical significance was determined by two-way repeated-measures ANOVA followed by two-tailed Sidak post hoc test. Data was analyzed using GraphPad Prism 8.1.0.

SMILES: CCCN(CCC)S(=O)(=O)c1ccc(C(O)(C(F)(F)F)C(F)(F)F)cc1 [Compound 1, 4-(1,1,1,3,3,3-hexafluoro-2-hydroxypropan-2-yl)-N,N-dipropylbenzenesulfonamide]
- Extinction of morphine seeking behaviour (lever pressing) (0.5 mg/kg i.p. 1 hour prior to each extinction session, vs saline): did not show a reduction in time required for extinction; also recorded: no difference was observed
- Lever presses (morphine seeking) during reinstatement, all animals (0.5 mg/kg i.p. during extinction, before reinstatement, or both, vs saline): significant reduction in the number of lever presses; also recorded: rescued
- Lever presses (morphine seeking) during reinstatement, female rats (0.5 mg/kg i.p. during extinction, first day of reinstatement, or both, females): decreased the number of lever presses; also recorded: reversed
